Experimental findings from the SangsterLogP compilation are described below.

By logP is commonly meant the decadic logarithm of the partition coefficient of the neutral form, usually between octanol and water. A high value points to a more lipophilic compound. By logD is commonly meant lipophilicity at a set pH, counting ionised and neutral species. Read a low logD as a more hydrophilic compound.

A short description of series [1]: method code SF-AS, from DOI: 10.1002/jps.2600610435, PMID: 5014327.
Series [2] is described as follows: method code SF-RC, from DOI: 10.1021/jm070025+, PMID: 17411026. The conditions noted are these: pH 7.4.
Series [3] in a line: method code SF-AS, from DOI: 10.1023/a:1018977225919, PMID: 10554109. The conditions noted are these: pH 3.5.
The conditions of series [4]: pH 7.4.
Experiment in series [5]: not given
The source holds these as a separate data set.

Series [6] is described as follows: method code SF-AS, from DOI: 10.1021/jf970979g, PMID: 10554305.
Experiment in series [7]: not given
This is another data set of the same source.

Experiment in series [8]: not given
The source holds these as a separate data set.

Series [9] in a line: method code SF-HPLC, from DOI: 10.1016/j.apradiso.2007.04.014, PMID: 17574425. The conditions noted are these: pH 7.4.
Series [10] can be described thus: method code SF-ESR, from DOI: 10.1515/znc-1987-7-832, PMID: 2961152.
Experiment in series [11]: not given
The source holds these as a separate data set.

Experiment in series [12]: not given
This is another data set of the same source.

Series [13] can be described thus: method code SF-AS, from DOI: 10.1021/jm9807104, PMID: 10514282. The conditions noted are these: pH 7.0.
The nature of series [14]: method code SF-RC, from DOI: 10.1002/syn.21606, PMID: 22927303. The conditions noted are these: pH 7.4.
Experiment in series [15]: not given
The source holds these as a separate data set.

Experiment in series [16]: not given
This is another data set of the same source.

Experiment in series [17]: not given
The source holds these as a separate data set.

Experiment in series [18]: not given
The source holds these as a separate data set.

Series [19] in a line: method code SF-AS, from DOI: 10.1002/jps.2600830406, PMID: 7913964.
Series [20] in a line: method code SF-GLC, from DOI: 10.1023/a:1015803202857, PMID: 2395795.
Experiment in series [21]: not given
This is another data set of the same source.

Series [22] can be described thus: method code SF-AS, from PMID: 8053967. The settings on record: pH 7.4.
Series [23] in a line: method code SF-AS, from DOI: 10.1080/1071576031000148736, PMID: 14567446.
Series [24] in a line: method code SF-AS, from DOI: 10.1002/jps.2600720808, PMID: 6620139.
Series [25] can be described thus: method code SF-RC, from DOI: 10.1016/j.nucmedbio.2005.06.001, PMID: 16253804. The settings on record: pH 7.4.
Series [26] can be described thus: from Courrière, P.; Paubel, J.P.; Nivière, P.; Foussard-Blaspin, O. (1978). Structure-activity study in a series of local anesthetic agents. I. Physicochemical properties and molecular orbital study. ….

With `COc1cc(C(=O)NC2CCCC3CN(C)CCC32)cc(OC)c1OC` (centres undefined), the logP in series [1] is -0.3.

For the molecule `CN(C)c1ccc(/C=C/c2cnc(OCCOCCOCCF)c(I)c2)cc1`, in [2], the pH-dependent lipophilicity (logD) was found to be 2.59.

The molecule `COC(=O)C1=C(C)NC(C)=C(C(=O)OCC(C)C)C1c1cccc([N+](=O)[O-])c1` (centres undefined) yielded a logP of 3.23.

In series [3], `C[C@H](CCC(=O)O)[C@H]1CC[C@H]2[C@@H]3CC[C@@H]4C[C@H](O)CC[C@]4(C)[C@H]3C[C@H](O)[C@]12C` had a log distribution coefficient (logD) of 3.5.

In series [4], `O=C(C=Cc1cc([N+](=O)[O-])cc2c1OCO2)N1CCC2(CC1)C(=O)NCN2c1ccccc1` yielded a logD of 3.1.

In [5], `CCC1C[C@H]2[C@@H]3CCC4=CC(=O)CC[C@@H]4[C@H]3CC[C@]2(C)[C@H]1C(=O)CF` (some centres undefined) displayed a logP of 4.41.

For `CC(NC1=CC(=O)C(NC(C)C(O)c2ccccc2)=CC1=O)C(O)c1ccccc1` (centres undefined), the logP in series [6] was 1.42.

The molecule `CC1(C)C=C(C(=O)NCCCN2C(=O)c3ccccc3C2=O)C(C)(C)N1` came in with a lipophilicity (logP) in series [7] of 1.63.

`N#Cc1ccc2c(c1)N(CCCN1CCC(O)CC1)c1ccccc1S2` registered a logP in series [8] of 3.89.

For `O=C(CCl)Nc1cc2c(Nc3cc(Cl)c(Cl)cc3F)ncnc2cc1OCCOCCF`, in series [9], the pH-dependent lipophilicity (logD) amounted to 4.3.

`CC1(C)CC(N(C(=O)N(CCCl)N=O)C2CC(C)(C)N(O)C(C)(C)C2)CC(C)(C)N1O`: the logP in series [10] is 1.63.

Take `CCCCCCCC(=O)OC(CNC(C)(C)C)COc1nsnc1N1CCOCC1` (centres undefined): the logP in [11] was determined as 4.66.

With `CSc1nc(NCCc2ccccc2)c2cnn(C(Cl)c3ccc(Cl)cc3)c2n1` (centres undefined), the logP in [12] was 6.54.

Molecule `COC(=O)C(C)NP(=O)(Oc1ccc(C)cc1)OC1C=CC(n2cc(C)c(=O)[nH]c2=O)O1` (centres undefined) registered a logD in series [13] of 1.19.

In series [14], `CCc1cc2cc(C(=O)C3CCC(OC)CC3)ccc2nc1F` (centres undefined) showed a logD of 3.54.

In [15], `C#C[C@@]1(O)[C@@H](F)C[C@H]2[C@@H]3CCc4cc(O)ccc4[C@H]3[C@@H](CC)C[C@@]21C` displayed a logP of 4.12.

Consider `COc1ccc(-c2oc3c(CC=C(C)C)c(O)cc(O)c3c(=O)c2O[C@@H]2O[C@@H](C)[C@H](O)[C@@H](O)[C@H]2O)cc1`, for which the logP in series [16] is 5.11.

In series [6], `CC(NC1=CC(=O)C(NC(C)c2ccccc2)=CC1=O)c1ccccc1` (centres undefined) gave a logP of 0.98.

With `CNc1nc(NCCCN(C)C)c2sc(-c3ccc(C(=O)C(F)(F)F)cc3)cc2n1`, the logP in series [17] was 4.6.

Take `CCCCCC(O)C=CC1C(O)CC(=O)C1CCCCCCC(=O)O` (centres undefined): in [3], the logD was found to be 3.12.

On to `C[C@]12CC[C@H](O)CC1=CC[C@@H]1[C@@H]2CC[C@]2(C)C(=O)CC[C@@H]12`, for which, in [18], the logP worked out at 3.23.

In turn, `CCN(CC)C(=O)Nc1ccc(OCC(O)CNC(C)(C)C)c(C(C)=O)c1` (centres undefined) showed a logP in series [8] of 1.92.

In turn, `COC(=O)C(C)NP(=O)(OCC1C=CC(n2cc(C)c(=O)[nH]c2=O)O1)Oc1ccc(OC(C)=O)cc1` (centres undefined) had a logD in series [13] of 1.01.

`CSc1nc(NCc2cccc(Cl)c2)c2cnn(CC(Cl)c3ccccc3)c2n1` (centres undefined): the log partition coefficient (logP) in [12] turned out to be 5.87.

Consider `C#C[C@]1(O)CC[C@H]2[C@@H]3CCc4cc(O)ccc4[C@H]3[C@@H](CC)C[C@@]21C`, for which the logP in [15] was found to be 4.28.

In turn, `COc1cc2nc(N(C)CCCNC(=O)C3CCCO3)nc(N)c2cc1OC` (centres undefined) displayed a lipophilicity (logP) of 1.93.

In the case of `COC(=O)[C@@H]1C[C@H]2[C@@H]3CCC4=CC(=O)C=C[C@]4(C)[C@H]3[C@@H](O)C[C@]2(C)[C@H]1C(=O)CO`, the logP in series [19] amounted to 1.7.

In turn, `OC(CCN1CCCCC1)(c1ccccc1)C1CC2C=CC1C2` (centres undefined) yielded a log partition coefficient (logP) in series [20] of 4.25.

Molecule `CC1(C)CC(N(CCN(C(=O)N(CCCl)N=O)C2CC(C)(C)N(O)C(C)(C)C2)C(=O)N(CCCl)N=O)CC(C)(C)N1O` came in with a logP in [10] of 2.35.

Turning to `CCc1cc2cc(C(=O)C3CCC(OC)CC3)ccc2nc1C` (centres undefined), the logD in series [14] is 3.38.

In the case of `C[C@H](CN1CCOCC1)C(C(=O)N1CCCC1)(c1ccccc1)c1ccccc1`, the logP in [21] came out at 3.61.

Take `CCC1C[C@H]2[C@@H]3CCC4=CC(=O)CC[C@@H]4[C@H]3CC[C@]2(C)C1C(=O)CO` (some centres undefined): in [5], the logP came to 4.21.

With `CNc1nc(NCCCN(C)C)c2sc(-c3cccc(C(=O)C(F)(F)F)c3)cc2n1`, the logP in series [17] turned out to be 4.3.

With `O=C(CCN1CCOCC1)CN1C(=O)CC2(CCc3ccccc32)C1=O` (centres undefined), the logD in series [22] is 1.26.

In the case of `COc1ccc(-c2oc3c(CC=C(C)C)c(O)cc(O)c3c(=O)c2O)cc1`, in series [16], the logP was found to be 6.07.

`C[C@]12CC[C@@H](O)C[C@@H]1CC[C@@H]1[C@@H]2CC[C@]2(C)[C@@H](O)CC[C@@H]12` showed a logP in series [18] of 4.16.

`COc1cc(C(=O)OC2CCC[C@@H]3CN(C)CC[C@H]23)cc(OC)c1OC` (some centres undefined) had a logP in series [1] of 0.58.

`COc1cc([N+](=O)[O-])cc(C=CC(=O)N2CCC(n3c(=O)[nH]c4ccccc43)CC2)c1OC` showed a log distribution coefficient (logD) in series [4] of 3.

Consider `O=C(CCN1CCOCC1)CN1C(=O)CC2(CCCc3ccccc32)C1=O` (centres undefined), for which, in series [22], the logD came out at 1.63.

For the molecule `COc1ccc(C(C)NCCC(c2ccccc2)c2ccccc2)cc1OC` (centres undefined), the logP in series [7] was determined as 5.74.

In series [23], `O=C(O)c1ccccc1C1c2cc(Cl)c(O)cc2Oc2cc(O)c(Cl)cc21` displayed a logP of 2.62.

In [24], `CCCCC[C@H](O)/C=C/[C@@H]1[C@@H](C/C=C\CCCC(=O)O)[C@@H](O)C[C@H]1O` came in with a logP of 2.72.

In turn, `CNc1ccc(C=Cc2ccc(OCCOCCF)cc2)cc1` had a logD in series [25] of 2.52.

Turning to `CC(C)(C)NCC(COc1nsnc1N1CCOCC1)OC(=O)c1ccccc1COC(=O)c1ccccc1` (centres undefined), the logP in series [11] was found to be 4.37.

`O=C(CCCN1CCC(O)(c2ccc(Cl)cc2)CC1)c1ccc(F)cc1`: in series [20], the logP was determined as 3.23.

Take `CC(=O)Oc1cc2c(cc1Cl)C(c1ccccc1C(=O)O)c1cc(Cl)c(OC(C)=O)cc1O2`: the logP in series [23] was 3.51.

With `COC(=O)[C@@H]1C[C@H]2[C@@H]3CCC4=CC(=O)C=C[C@]4(C)[C@@]3(F)[C@@H](O)C[C@]2(C)[C@H]1C(=O)CO`, in series [19], the logP stood at 1.78.

As to `Cc1cccc(C)c1N(CCCN(C)C)C(=O)Cc1ccccc1`, in series [26], the log partition coefficient (logP) was 4.9.

As to `CNc1ccc(C=Cc2ccc(OCCOCCOCCF)cc2)cc1`, the logD in series [25] is 2.41.

With `CNc1ccc(/C=C/c2cnc(OCCOCCOCCF)c(I)c2)cc1`, the logD in series [2] was found to be 2.54.

With `Cc1cccc(C)c1N(CCCN(C)C)C(=O)/C=C/c1ccccc1`, the logP in series [26] is 5.27.

As for `O=C(CCl)Nc1cc2c(Nc3cc(Cl)c(Cl)cc3F)ncnc2cc1OCCOCCOCCOCCF`, the log distribution coefficient (logD) in series [9] turned out to be 4.64.

In series [24], `CCCCC[C@](C)(O)/C=C/C1[C@H](O)C[C@H](O)[C@@H]1C/C=C\CCCC(=O)OC` (some centres undefined) came in with a lipophilicity (logP) of 3.21.

`CCOC(=O)C1(c2ccccc2)CCN(CCC(O)c2ccccc2)CC1` (centres undefined) came in with a logP in [21] of 4.04.
